Patent US20100004159A1, “SUBSTITUTED IMIDAZOLONE DERIVATIVES, PREPARATIONS AND USES” (GENFIT, priority 2006, published 2010)

What was measured:
hPPARγ = biological target: T1, hPPARγ (Homo sapiens, UniProt P37231); assay: Gal4-hPPARγ transactivation in COS-7 cells (luciferase); assay type: cell-based; conditions: for EC50: Gal4-hPPARγ chimera, COS-7 cells, 24 hours
T1 construct: DNA fragments amplified by PCR and corresponding to the DEF domains of human PPARα, PPARγ, and PPARδ nuclear receptors; expressed in transfected cells; host or cells: COS-7
T1 sequence (P37231 238-503 limits assumed): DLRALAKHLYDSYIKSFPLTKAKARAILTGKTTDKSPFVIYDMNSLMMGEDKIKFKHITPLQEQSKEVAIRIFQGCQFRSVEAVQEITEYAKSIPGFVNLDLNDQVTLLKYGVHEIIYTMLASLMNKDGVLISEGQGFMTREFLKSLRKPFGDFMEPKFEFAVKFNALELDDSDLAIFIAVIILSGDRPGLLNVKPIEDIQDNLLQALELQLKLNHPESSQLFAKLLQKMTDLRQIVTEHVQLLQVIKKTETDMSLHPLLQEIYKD
Method: The activation of PPARs was evaluated in vitro using a monkey kidney fibroblast line (COS-7) by measuring the transcriptional activity of chimeras made up of the DNA binding domain of the Gal4 transcription factor of yeast and of the binding domain to the ligand of the different PPARs. The compounds were tested at doses of between 0.01 and 100 μM on Gal4-PPARα, γ, and δ chimeras.
COS-7 cells came from ATCC (American type culture collection) and were cultivated in a DMEM medium supplemented with 10% (vol/vol) of fetal calf serum, 100 U/ml of penicillin (Gibco, Paisley, UK) and 2 mM of L-Glutamine (Gibco, Paisley, UK). The cells were incubated at 37° C. under humid atmosphere containing 5% CO2.
The plasmids Gal4(RE)_TkpGL3, pGal4-hPPARα, pGal4-hPPARγ, pGal4-hPPARδ and pGal4-φ have been described in the literature (Raspe E et al., 1999). The constructions pGal4-hPPARα, pGal4-hPPARγ, and pGal4-hPPARδ were obtained by cloning, in the pGal4-φ vector, DNA fragments amplified by PCR and corresponding to the DEF domains of human PPARα, PPARγ, and PPARδ nuclear receptors.
The COS-7 cells in suspension were transfected with 150 ng of DNA per well, with a pGal4-PPAR/Gal4(RE)_TkpGL3 ratio of 1/10, in presence of 10% fetal calf serum. The cells were then plated in 96-well plates (4×10^4 cells/well), then incubated for 24 hours at 37° C. Activation with the test compounds was performed for 24 hours at 37° C. in a medium without serum. At the end of the experiment, the cells were lysed and the luciferase activity was determined using the Steady-Lite™ HTS (Perkin Elmert) or the Steady Glow Luciferase kit (Promega), in accordance with the provider's recommendations.
The compounds according to the invention were tested at doses between 0,01 and 100 μM on the 3 PPAR isoforms. The results obtained are presented in detail under FIG. 1a.

db/db mouse = assay: Plasma lipids, glycemia and insulinemia in db/db mouse; assay type: in vivo; conditions: 28-day treatment per os
Method: The insulin-resistance and hypolipemic properties of the compounds according to the invention were evaluated in vivo by assaying the plasma lipid, by measuring the plasma glucose and insulin levels, and by an analysis of the gene expression of PPAR target genes, after a per os treatment with the compounds according to the invention. These tests were performed in the db/db mouse
Female db/db mice were kept on a 12 hour/12 hour light/dark cycle at a constant temperature of 20±3° C. After a one week acclimatization period, the mice were weighed and divided into groups of 8 animals selected so as to render uniform the distribution of their body weights and their plasma lipid rates, determined before the experiment. The tested compounds were suspended in carboxymethylcellulose (Sigma C4888) and administered by intra-gastric tube feeding once a day for 28 days at the chosen dose. The animals had free access to food and water (standard diet). Taking of food and weight gain are recorded throughout the experiment. At the end of the experiment, the animals were anesthetized after a 4 hour fast, a blood sample was taken using (EDTA) anticoagulant, then the mice were weighed and euthanized. The plasma was separated by centrifugation at 3000 rotations/minute for 20 minutes. The samples were kept at +4° C.
Plasma lipid concentrations (total cholesterol and triglycerides) were measured by enzymatic assays (bioMerieux-Lyon-France) according to the provider's recommendations.
Murine plasma glucose was measured according to an enzyme-colorimetric method using a Glucose RTU kit (Biomerieux). Glucose is transformed into gluconic acid under the action of glucose oxidase; the reaction releases hydrogen peroxide. Hydrogen peroxide was measured according to the Trinder reaction which, under the action of a peroxidase and in the presence of phenol and amino-4-antipyrine, produces water and a colored product, quinoneimine. The color intensity, due to the quinoneimine, is proportional to the amount of glucose present in the sample.
Murine insulin is measured using ELISA method (using the INSKR020 kit from provider Crystal chem.). A microplate is coated with a mouse anti-insulin antibody. Then, the serum to be assayed for insulin is placed onto the plate. A guinea pig anti-insulin antibody is used to recognize the complex formed by the mouse insulin and the anti-insulin monoclonal antibody. Finally an anti-guinea pig antibody labeled with peroxidase is added and bind to the guinea pig anti-insulin antibody. The colorimetric reaction is performed by adding an OPD (Ortho Phenyl Diamine) enzyme substrate. The intensity of the color is proportional to the amount of insulin present in the sample.

[1] = system: Wistar rats under perfusion of angiotensin II; assay: Arterial pressure of Wistar rats under angiotensin II perfusion; assay type: in vivo, rat; conditions: angiotensin II perfusion 100 ng/kg/min; intravenous increasing doses 1, 3, 10 and 30 mpk
Method: This experimental procedure is intended to show the anti-hypertensive effects of the compounds according to the invention in Wistar rats in which hypertension is induced either by continuous intravenous administration of angiotensin II (example 21.1) or by repeated intravenous administration of angiotensin II (example 21.2). The animals were treated with the compounds according to the invention intravenously at increasing doses. To validate the study, the control animals were administered, in the same conditions, either the vehicle itself or a reference.
Wistar rats (males—200-250 g—5-6 weeks old—CERJ) were anesthetized for surgery using pentobarbital (50 mg/kg). A catheter was placed in the right jugular vein for the angiotensin II perfusion. A catheter was placed in the left jugular vein for the administration of the compounds according to the invention. The angiotensin II perfusion at 100 ng/kg/min was performed using an auto-syringe set at 5 ml/hour (vehicle NaCl 0.15M). A solution of Na2CO3/NaHCO3 (50 mM pH 9.6) served as the vehicle for the compounds according to the invention. Arterial pressure was measured using a sensor set in the carotid artery via a catheter.
The arterial pressure of the animal was measured for few minutes in basal conditions, before the angiotensin II perfusion was put into place. […]

Structure (SMILES)	activation of hPPARγ (luciferase activity) (hPPARγ; COS-7 cells transfected pGal4-hPPAR, 0.01 to 100 μM)	EC50 (hPPARγ) [µM]	glycemia (db/db mouse; 10, 30 or 100 mpk)	insulinemia (db/db mouse; 10, 30 or 100 mpk)	plasma free lipids level (db/db mouse; 10, 30 or 100 mpk)	plasma triglycerides level (db/db mouse; 10, 30 or 100 mpk)	arterial pressure: antagonist effect on angiotensin II [1]	glycemia (db/db mouse; 100 mpk)	insulinemia (db/db mouse; 100 mpk)	plasma free lipids level (db/db mouse; 100 mpk)	plasma triglycerides level (db/db mouse; 100 mpk)
CCCCC1=NC2(CCCC2)C(=O)N1Cc1ccc(-c2cccc(OC(C)(C)C(=O)O)c2)cc1 [Compound 1, 2-butyl-1-[(3′-((1-carboxy-1,1-dimethylmethyl)oxy)biphenyl-4-yl)methyl]-4-spirocyclopentyl-1H-imidazol-5(4H)-one]	activate the two PPAR isoforms	8	decreased significantly (and dose-dependently)	decreased significantly (and dose-dependently)	decreased significantly (and dose-dependently)	decreased significantly (and dose-dependently)	antagonist effect on angiotensin II in a significant and dose-dependent way	–	–	–	–
CCCCC1=NC2(CCCCC2)C(=O)N1Cc1ccc(-c2cccc(OC(C)(C)C(=O)O)c2)cc1 [Compound 21, 2-butyl-1-[(3′-((1-carboxy-1,1-dimethylmethyl)oxy)biphenyl-4-yl)methyl]-4-spirocyclohexyl-1H-imidazol-5(4H)-one]	–	1	–	–	–	–	antagonist effect on angiotensin II in a significant and dose-dependent way	decreased significantly	decreased significantly	decreased significantly	decreased significantly
